Laboratory results taken from ChEMBL document CHEMBL2094260, “Malaria Box Tuberculosis Screening Data”.

Columns and labels:
[1] = tested on: Mycobacterium tuberculosis; assay: MMV: Screen against Mtb, single point, replicating, at 25uM; assay type: functional
[2] = tested on: Mycobacterium tuberculosis; assay: MMV: Screen against Mtb, single point, non replicating, at 25uM; assay type: functional

Compound | inhibition at 25 µM [1] | inhibition at 25 µM [2]
CN(C)CCCNc1c2ccccc2nc2ccccc12 | 18.4% | 17.8%
CCN1CCCC1CNc1[nH]cnc2c3cc(Cl)ccc3nc1-2 (stereo not given) | 0.0616% | 4.53%
COc1ccc(-c2c(C)nn3c(N)c(C#N)cnc23)cc1OC | 5.83% | 11.5%
CSC1=NC(=Nc2c(C)cccc2C)C2(CCC(C(C)(C)C)CC2)N1c1ccc(Cl)cc1 (stereo not given) | 1.28% | 9.94%
COc1ccc2nc(C)cc(Nc3ccccc3O)c2c1 | 13.6% | 7.14%
Cc1cc(C)cc(Nc2cc(C)nc3nc(C(F)(F)F)nn23)c1 | 7.5% | 4.53%
O=C(NCC(c1ccsc1)N1CCCCCC1)c1ccc(C(F)(F)F)cc1 (stereo not given) | 8.41% | 10.5%
COc1ccc(-c2cc3c(SCC(=O)Nc4cc(C(F)(F)F)ccc4Cl)nccn3n2)cc1 | 10.2% | 15%
Cc1ccc(-c2cc3c(SCC(=O)Nc4cc(C(F)(F)F)ccc4Cl)nccn3n2)cc1 | 3.25% | 8.19%
CCN(CC)CCNc1ncnc2c1[nH]c1ccc(Cl)cc12 | 15.4% | 18.1%
CCOC(=O)c1cnc2ccc(CC)cc2c1O | 12.5% | 7.14%
Cc1ccc(-c2cc3c(nn2)-c2ccccc2C3=O)cc1 | 41.8% | 17.3%
CCN(CC)CCNc1ccnc2cc(Cl)ccc12 | 4.01% | 18.3%
CCCCCC(=O)N1c2ccccc2N=C2CC(c3ccc(OC)c(OC)c3)CC(O)=C2C1c1ccc(C(F)(F)F)cc1 (stereo not given) | 12.5% | 16%
Cc1cc(Nc2ccc3ccccc3c2)n2ncnc2n1 | -2.52% | 19.9%
COc1ccc(-n2ccnc2SCC(=O)Nc2cc(C)ccc2C)c(OC)c1 | 2.95% | 8.89%
CCN1CCN(Cc2ccc(NC(=O)c3cc4ccc5cccnc5c4[nH]3)cc2)CC1 | 18.3% | 3.13%
COc1ccc(-c2nc(NC(=O)CS(=O)(=O)c3ccc(F)cc3)sc2C)cc1 | 14.9% | 21.5%
O=C(O)C1Cc2c([nH]c3ccccc23)C(c2ccc(Cl)cc2Cl)N1 (stereo not given) | 13.7% | 8.72%
FC(F)(F)c1ccc(Nc2nnnc3ccccc23)cc1 | 44.2% | 31.2%
Cc1ccc(N2C(=O)C3C(C2=O)C2(c4ccccc4)C(=O)C3(c3ccccc3)C(c3ccccc3)=C2c2ccccc2)cc1 (stereo not given) | 9.93% | 4.88%
CCc1c(C)c(=N)c2ccccc2n1C | 4.16% | 2.08%
COc1cccc(NC(=O)[C@H](C(C)C)n2c(=O)[nH]c3ccccc3c2=O)c1 | 7.35% | 5.22%
CCOC(=O)c1cn(CC)c2cc(N(C)CCc3ccc(OC)c(OC)c3)c(F)cc2c1=O | 14.8% | 11.9%
CCC(c1ccccc1)c1nn2c(-c3cccs3)nnc2s1 (stereo not given) | 19.3% | 20.8%
CC(C)(C)c1ccc(O)c(CNC2CCCCC2)c1 | 38.8% | 16.6%
O=[N+]([O-])c1ccc(C=NNc2nc3ccccc3[nH]2)cc1 | 16.3% | 16.2%

Compound | inhibition at 25 µM [1] | inhibition at 25 µM [2]
CCOc1cc2c(cc1OCC)C(c1cc(OC)c(O)cc1Cl)NCC2 (stereo not given) | 23.3% | 13.6%
CC1CN(C(=O)c2sc3ccccc3c2Cl)CC(C)O1 (stereo not given) | 15.5% | 22.9%
CN(C)c1ccc(C=Cc2nc(=O)c3ccccc3o2)cc1 | 11.9% | 20.4%
COc1ccc(C2=C(c3ccc(OC)cc3)C3(c4ccccc4)C(=O)C2(c2ccccc2)C2C(=O)N(c4ccc(C)cc4)C(=O)C23)cc1 (stereo not given) | 10.1% | 11%
CCOC(=O)c1c(NC(=O)c2ccccc2)sc2c(O)c(CN(CC)CC)ccc12 | 51.8% | 16%
CCOC(=O)C1=C(c2ccccc2)N=c2sc(=Cc3cc(C)n(-c4ccc(F)cc4)c3C)c(=O)n2C1c1cccc(OC)c1OC (stereo not given) | 1.88% | 6.1%
CCC1(C)CC(CCNCc2ccccc2O)(c2ccc(C)cc2)CCO1 (stereo not given) | 14.5% | 2.96%
Cc1cc(Nc2ccc(C)c(Cl)c2)n2nc(C(F)(F)F)nc2n1 | 19.5% | 4.53%
COc1cccc(C=Cc2nc(=O)c3ccccc3o2)c1OC | 40.6% | 11.5%
CCCN(CCC)CC(O)COc1ccccc1C(=O)Nc1ccccc1 (stereo not given) | 20.9% | 17.1%
Fc1ccc2[nH]c3c(NCCCN4CCOCC4)ncnc3c2c1 | 13.6% | 13.8%
COc1ccc(C(=O)Nc2nonc2-c2ccc(OC)c(OC)c2)cc1Cl | 3.86% | 5.57%
COc1ccc(C=C2SC(=N)N(c3ccccc3OC)C2=O)cc1 | 24.5% | 6.97%
COc1ccc(NC(=O)C2c3ccccc3C(=O)N(CC(C)C)C2c2cccs2)cc1Cl (stereo not given) | -1.46% | 22.2%
CCOC(=O)c1c(C)n(-c2ccc(Cl)cc2)c2ccc(OC(=O)C=Cc3ccccc3)cc12 | 25.1% | 18.8%
COc1ccc2c(c1)OC(O)(C(F)(F)C(F)(F)F)CC2=O (stereo not given) | 23.4% | 20.1%
CCOc1cc(Cl)c(C(C)NC(=O)c2ccccc2)cc1OCC (stereo not given) | 10.4% | 2.61%
C=CC12CCN(CC1)C(C(O)c1ccnc3ccc(OC)cc13)C2 (stereo not given) | 27.2% | 18.8%
Cc1ccc(-c2cc3nc4c(c(O)n3n2)CCCC4)cc1 | 14% | 21.5%
Cc1cccc(Nc2nc(N)c3ccccc3n2)c1 | 9.63% | -2.28%
CCn1c(CN2CCN(Cc3ccccc3)CC2)nc2cc(NC(=O)c3cccs3)ccc21 | 12.5% | 15.2%
COc1ccccc1CNC(=O)CCn1c(=O)[nH]c2ccccc2c1=O | 6.74% | 11.2%
c1ccc2cc3c(Nc4ccc(N5CCOCC5)cc4)ccnc3cc2c1 | 19.5% | 0.164%
Cc1cc(C)c2c(c1)OCN(Cc1ccccc1Cl)C2 | 9.78% | 12%
COc1cc(OC)c(N(C)C(=O)c2cc3c(s2)-c2ccccc2S(=O)(=O)C3)cc1Cl | 38% | 6.97%
COc1ccccc1NC1=C(N2CCCCC2)C(=O)c2ccccc2C1=O | 13.3% | 24.8%
CCOC(=O)c1cn(CC)c2cc(N3CCCCC3)c(F)cc2c1=O | 45% | 6.27%

Compound | inhibition at 25 µM [1] | inhibition at 25 µM [2]
CCCc1cc(O)c2c3c(c(=O)oc2c1)CN(C)CC3 | 16% | 14.1%
Cc1cc(NC(=O)C2c3ccccc3C(=O)N(CC(C)C)C2c2cccs2)no1 (stereo not given) | 12.2% | 13.1%
Oc1ccccc1CNCC12CC3CC(CC(C3)C1)C2 | 49.7% | 18.7%
CNCCCNc1ccnc2cc(Cl)ccc12 | 8.11% | 5.05%
COc1ccccc1CNC(=O)CCn1c(=O)[nH]c2ccsc2c1=O | 9.93% | 0.338%
COc1ccc(Br)cc1C1Nc2ccc3ccccc3c2C2=C1C(=O)CC(c1ccccc1)C2 (stereo not given) | 16.2% | 20.9%
Cc1cc(C=C2SC(=Nc3ccccc3)N(C3CCCC3)C2=O)c(C)n1-c1ccc(Cl)cc1 | 2.04% | -1.41%
CCn1c(SCC(=O)Nc2cc(C(F)(F)F)ccc2Cl)nc2ccccc2c1=O | 2.95% | 16%
O=C(Nc1ccc(Cl)cc1C(=O)Nc1ccncc1)c1ccc(Cl)cc1Cl | 30% | 27.7%
CCOc1ccc(-c2nonc2NC(=O)c2cccc(C)c2)cc1OCC | 2.34% | 9.24%
CCc1ccc(Nc2cc(C)c3ccc(O)cc3n2)cc1 | 4.16% | 17.3%
COc1ccc2c(=O)cc(C(Cl)(Cl)Cl)oc2c1 | 25.3% | 18.3%
Oc1ccc(C(=C(Cl)Cl)c2ccc(O)cc2)cc1 | 9.95% | 0.782%
COc1cc(CNCCc2ccc(Cl)cc2)cc(OC)c1O | 0.392% | 35.9%
COc1ccc(-c2nc3cc(Cc4ccc5[nH]c(-c6ccc(OC)cc6)nc5c4)ccc3[nH]2)cc1 | 41.7% | 29.3%
CCOC(=O)c1ccc2nc(-c3ccccc3)cc(O)c2c1 | 14.6% | 15.5%
Cc1cc(Nc2ccc(Cl)cc2)n2nc(C(F)(F)F)nc2n1 | 9.63% | 10.3%
COc1ccc(C(C)=O)cc1N1C(=O)C2C(C1=O)C1(c3ccccc3)C(=O)C2(c2ccccc2)C(c2ccc(C)cc2)=C1c1ccc(C)cc1 (stereo not given) | 22.4% | 28.1%
CCCCCCOC(=O)C1=C(C)NC(=O)NC1c1ccccc1F (stereo not given) | 9.78% | 6.8%
Cc1ccc(N2C3c4ccccc4N(S(=O)(=O)c4ccc(C)cc4)C2c2ccccc2N3S(=O)(=O)c2ccc(C)cc2)cc1 | 4.16% | 18%
CCCc1c(CC)c(=N)c2ccccc2n1C | 16% | 4%
CC1CCCCN1CCCNC(=O)c1ccc2c(c1)sc1nc(-c3ccc(F)cc3)cn12 (stereo not given) | 33.2% | 9.76%
CCOC(=O)c1cnc2c(C)cc(C)cc2c1Nc1ccc(OC)c(OC)c1 | 4.46% | 3.83%
CCCn1c(=N)c(C(=O)NC2CCCCC2)cc2c(=O)n3cccc(C)c3nc21 | -4.62% | 2.38%
COc1ccc(NC(=O)C2c3ccccc3C(=O)N(CC(C)C)C2c2cccs2)cc1 (stereo not given) | 4.77% | 3.3%
c1ccc(Cn2c(N=Nc3c(Nc4ccccc4)ccc4ccccc34)nc3ccccc32)cc1 | 14.9% | 18.7%
